Patent publication US11191773B2, “Methods of treatment for bacterial infections” (President and Fellows of Harvard College, priority 2017, dated 2021)

Experiments:
[1] = target: T1, LptB2LptFG(ch)C complexes (Escherichia coli, UniProt P0A9V1); assay: LPS-release assay, right-side-out vesicles to LptA*; assay type: biochemical, E. coli; details: 30° C. (FIG. 9C)
T1 construct: made in house; host or cells: right-side-out membrane vesicles from E. coli BL-21(λDE3) overexpressing the complex
Experimental: FIG. 9A is a schematic drawing showing the assay to monitor LPS release from right-side-out vesicles to LptA* (LptA(I36pBPA)). Vesicles containing overexpressed wild-type or mutant LptB2FGC complexes were incubated with LptA* and ATP at 30° C. to initiate LPS extraction and transport from the vesicles to LptA*. Samples were taken at different time points and UV-irradiated to crosslink LPS to LptA*, and accumulation of LPS-LptA* adducts was detected using LPS immunoblots.
The assay detects via immunoblot LPS that becomes crosslinked to LptA* in the presence of UV light. […] By comparison, vesicles containing LptB2LptFG(ch)C complexes released less LPS over time (FIG. 9B, lanes 5-8). These experiments provide direct evidence that the amino acid changes in LptFG(ch), which were known to affect complex formation with LptB, impair LPS release. […] These compounds also increase LPS release from vesicles containing wild-type LptB2FGC complexes or LptB(R91 S)2FGC complexes (FIG. 17).
The in vitro LPS-transport experiments in FIGS. 9B, 9C, and 17 were set-up as described in (Okuda et al. Science 2012, 338, 1214-1217) with some modifications. […]
Immunoblotting was used to assess LptA*-LPS levels in each sample. […] LptA levels were assessed similarly, using rabbit anti-LptA antiserum followed by donkey anti-rabbit horseradish peroxidase conjugate (GE Amersham). […]

[2] = test system: E. coli strain ATCC 25922; assay: Neutropenic mouse thigh infection efficacy; assay type: in vivo
Experimental: Female CD-1 mice from Charles River Laboratories were allowed to acclimate for 5 days prior to start of study. Animals were housed four per cage with free access to food and water. Mice received two doses of cyclophosphamide on days −4 and −1 with 150 mg/kg and 100 mg/kg delivered IP, respectively. All procedures were performed to NeoSome IACUC policies and guidelines as well as OLAW standards.
E. coli strain ATCC 25922 was prepared for infection from an overnight plate culture. A portion of the plate was resuspended in sterile saline and adjusted to an OD of 0.15 at 625 nm. The adjusted bacterial suspension was further diluted to target an infecting inoculum of 1.5×10^5 CFU/mouse, the actual inoculum size for E. coli was 1.45×10^5 CFU/mouse. Plate counts of the inoculum was performed to confirm inoculum concentration.
Mice were inoculated with 100 μL of the prepared bacterial suspension via intramuscular injection into the right rear thigh.
Beginning at two hours post infection, mice were dosed with test agents subcutaneously at 10 mL/kg. A second dose of test agents was delivered at 6 hours post infection. For co-administered therapy, test agents were delivered separately at two different injection sites. Four animals were dosed per group. One group of four mice were euthanized at initiation of therapy (T=2 h) and CFUs determined. All remaining mice were euthanized at 26 hours post infection. At termination, thighs were aseptically excised, weighed, and homogenized to a uniform consistency in 2 mL of sterile saline. The homogenate was serially diluted and plated on bacterial growth media. The CFUs were enumerated after overnight incubation. The average and standard deviations for each group were determined.
Neutropenic mice infected with E. coli were treated with novobiocin, polymyxin B, or a combination of the two for the evaluation of efficacy is a thigh infection model.

[3] = test system: Klebsiella pneumoniae; assay: Minimal inhibitory concentrations, checkerboard microdilution; assay type: cell-based; details: Klebsiella pneumoniae; grown at 37° C. for 24 h; read-out: MIC
Experimental: (§1) Checkerboard microdilution assays between polymyxin B and novobiocin were performed in wild-type strains (unless otherwise noted) grown at 37° C. for 24 h. Checkerboard data (FIG. 1A-1F) are representative of at least three biological replicates. The following strains were tested: A) Wild-type Escherichia coli, ATCC 25922; B) Wild-type Enterobacter cloacae; ATCC 13047) Wild-type Klebsiella pneumoniae, ATCC 700721; D) Wild-type Pseudomonas aeruginosa, ATCC 15692 (PAO1); E) Wild-type Acinetobacter baumannii, ATCC 19606; F) novobiocin-resistant Acinetobacter baumannii, ATCC 19606 gyrB(R150C).

[4] = test system: Acinetobacter baumannii Novo^R; assay: as above; assay type: cell-based; details: Acinetobacter baumannii, 24 h
Experimental: as §1

[5] = test system: Escherichia coli; assay: as above; assay type: cell-based; details: Escherichia coli; grown at 37° C. for 24 h; read-out: MIC
Experimental: as §1

[6] = test system: Pseudomonas aeruginosa; assay: as above; assay type: cell-based; details: Pseudomonas aeruginosa; grown at 37° C. for 24 h; read-out: MIC
Experimental: as §1

[7] = test system: A. baumannii (ATCC: 19606) mutant that is novobiocin and polymyxin-resistant; assay: Checkerboard microdilution assay, polymyxin-resistant strain; assay type: cell-based; details: 37° C. for 24 h
Experimental: The effect of novobiocin/polymyxin combination was further assessed in polymyxin-resistant strains using checkerboard microdilution assays. In these assays, polymyxin-resistant strains (E. coli (clinical isolate from Brigham and Women's Hospital); A. baumannii (ATCC: 19606) mutant that is novobiocin and polymyxin-resistant; and K. pneumoniae (clinical isolate from Brigham and Women's Hospital)) were grown at 37° C. for 24 h.

[8] = test system: Gram-negative pathogens; assay: Checkerboard microdilution assays between polymyxin B and novobiocin (FIG. 1A-1F); assay type: cell-based; details: six strains of FIG. 1A-1F, 37° C. for 24 h
From the text: Checkerboard data are representative of at least three biological replicates.

[9] = Novobiocin 200 mg/kg (total 400) BID/SC

T1 sequence (P0AF98 whole entry E84A): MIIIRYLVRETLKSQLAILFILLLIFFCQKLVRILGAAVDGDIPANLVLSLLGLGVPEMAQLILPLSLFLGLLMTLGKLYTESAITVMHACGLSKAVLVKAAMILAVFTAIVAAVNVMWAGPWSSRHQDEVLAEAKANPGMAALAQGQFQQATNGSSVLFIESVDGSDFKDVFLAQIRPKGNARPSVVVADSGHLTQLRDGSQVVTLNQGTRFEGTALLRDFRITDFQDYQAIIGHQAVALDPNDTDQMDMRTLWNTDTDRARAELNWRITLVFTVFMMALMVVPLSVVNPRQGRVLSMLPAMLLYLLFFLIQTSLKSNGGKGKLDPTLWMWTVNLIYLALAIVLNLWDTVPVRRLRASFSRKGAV
T1 sequence (P0ADC6 whole entry E88A, further chain): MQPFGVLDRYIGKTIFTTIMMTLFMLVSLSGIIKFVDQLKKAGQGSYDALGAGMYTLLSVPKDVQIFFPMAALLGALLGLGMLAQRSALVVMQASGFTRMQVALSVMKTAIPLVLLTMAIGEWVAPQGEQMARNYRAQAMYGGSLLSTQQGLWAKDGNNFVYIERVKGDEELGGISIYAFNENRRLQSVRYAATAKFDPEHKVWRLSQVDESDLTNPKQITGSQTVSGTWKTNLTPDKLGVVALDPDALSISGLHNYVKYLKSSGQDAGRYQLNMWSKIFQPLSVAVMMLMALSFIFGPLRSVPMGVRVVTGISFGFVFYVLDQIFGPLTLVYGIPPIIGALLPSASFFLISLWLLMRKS
T1 sequence (P0A9V1 2-241): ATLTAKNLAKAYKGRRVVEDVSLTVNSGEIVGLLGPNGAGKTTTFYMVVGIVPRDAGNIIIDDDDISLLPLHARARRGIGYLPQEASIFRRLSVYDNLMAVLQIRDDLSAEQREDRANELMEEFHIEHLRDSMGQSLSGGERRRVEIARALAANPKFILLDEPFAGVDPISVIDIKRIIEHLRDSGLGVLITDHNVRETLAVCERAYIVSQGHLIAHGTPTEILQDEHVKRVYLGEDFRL
T1 sequence (P0ADV9 whole entry, further chain): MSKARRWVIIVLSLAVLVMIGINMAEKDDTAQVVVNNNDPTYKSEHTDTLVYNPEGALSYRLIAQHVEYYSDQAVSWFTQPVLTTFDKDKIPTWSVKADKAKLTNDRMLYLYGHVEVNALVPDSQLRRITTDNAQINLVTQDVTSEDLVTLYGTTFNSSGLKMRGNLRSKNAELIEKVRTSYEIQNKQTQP

With `CO[C@@H]1[C@@H](OC(N)=O)[C@@H](O)[C@H](Oc2ccc3c(O)c(NC(=O)c4ccc(O)c(CC=C(C)C)c4)c(=O)oc3c2C)OC1(C)C` [Novobiocin, novobiocin] the “LPS release from vesicles to LptA*” value [1] was “stimulate LPS release from the LptB2LptFG(ch)C vesicles in a concentration dependent manner”, the “change in log10 CFU/g of thigh from 2 hour control” value [2, 9] was 3.58 log10 CFU/g of thigh and the “change in log10 CFU/g of thigh from 26 hour controls” value [2, 9] was −0.51 log10 CFU/g of thigh. For the same compound, the “activity against this isolate” value ([2]; Novobiocin delivered at 200 mg/kg) was “did not demonstrate significant activity”, the “Average log10 CFU/g of thigh” value ([2]; neutropenic CD-1 mice, Novobiocin 200 mg/kg (total 400) BID/SC, 26 hours post infection) was 9.12 log10 CFU/g of thigh and the MIC [3] was 270 µg/mL. The MIC [4] was 190 µg/mL, the MIC [5] was 20 µg/mL and the MIC [6] was over 450 µg/mL. The “synergy with polymyxin B” value [7] was “synergizes with polymyxin B” and the “synergy with polymyxin B” value [8] was “synergizes with polymyxin B to kill Gram-negative pathogens in vitro”.
